According to publication PMC9866601, “Constituents of Pulicaria inuloides and Cytotoxic Activities of Two Methoxylated Flavonols” (Molecules, 2023):
Like-named read-outs stand apart in the source and are kept apart here.

Columns and labels:
HeLa cells = tested on: HeLa cells; parameters: method as in PMID 30673162; conditions: in vitro; cited from earlier work
A549 cells = tested on: A549 cells; parameters: method as in PMID 30673162; conditions: in vitro; cited from earlier work
cholinesterase = tested on: cholinesterase; parameters: method as in PMID 30673162; conditions: cited from earlier work
HaCaT cells = assay: MTT cytotoxicity assay, skin keratinocytes HaCaT; format: cell-based, human; conditions: for IC50: Homo sapiens, HaCaT
Experimental: (§1) Cytotoxic activity was tested on human cancer and normal cells, namely: prostate cancer cell lines DU145 (ATCC HTB-81) and PC3 (ATCC CRL-1435), prostate epithelial cells PNT-2 (ECACC 95012613), melanoma cell lines A375 (ATCC CRL-1619) and HTB140 (ATCC Hs 294T) and skin keratinocytes HaCaT (obtained as a kind gift from prof. Marta Michalik, Department of Cell Biology, Jagiellonian University). DU145 cells were grown in a modified Eagle’s medium with a low (1.0 g/L) glucose concentration, as well as PC3 and PNT-2 cells in Dulbecco’s modified Eagle’s media: F12 HAM nutrient mixture. At the same time, melanoma cells and keratinocytes were maintained in a modified Eagle’s medium with a high (4.5 g/L) glucose concentration. The culture media (all supplied by Sigma-Aldrich Co.; St. Louis, MO, USA) contained antibiotics and 10% fetal bovine serum (FBS). All cultures were maintained at 37 °C in a humidified 5% CO2-containing atmosphere.
(§2) The examined flavonols were diluted in the culture media from freshly made stock solutions in MeOH (10 mg/mL) to the working concentrations (from 5 to 100 μg/mL).
(§3) Cells were seeded in 96-well plates (1.5 × 10^4 cells/well) and preincubated for 24 h (37 °C, 5% CO2). Then, the culture medium was replaced with a fresh medium containing different concentrations of the tested compounds (5–100 µg/mL). The incubation lasted 48 h. Cell viability was measured by an MTT assay, as previously described. The absorbance at 490 nm was measured using a Synergy II Biotek (BioTek Instruments, Winooski, VT, USA) microplate reader. Cytotoxic activity was assessed based on the cell viability expressed as the percentage of living cells. The results were the means of three independent measurements (±SD). Doxorubicin (Ebewe Pharma GmbH., Unterach, Austria) was used as a reference cytostatic drug. The IC50 values were determined by plotting the percentage viability of the cells versus the concentration and adequate calculations made using either Excel or the AAT Bioquest website program (https://www.aatbio.com/tools/ic50-calculator, accessed on 4 September 2022).

HTB140 cells = assay: MTT cytotoxicity assay, melanoma cells HTB140; format: cell-based, human; conditions: for IC50: Homo sapiens
Experimental: as §1, §2, §3

PC3 cells = assay: MTT cytotoxicity assay, prostate cancer cells PC3; format: cell-based; conditions: Homo sapiens, PC-3, 48 h, 48 h treatment
Experimental: as §1, §2, §3

DU145 cells = assay: MTT cytotoxicity assay, prostate cancer cells DU145; format: cell-based; conditions: Homo sapiens, DU-145
Experimental: as §1, §2, §3

A375 cells = assay: MTT cytotoxicity assay, melanoma cells A375; format: cell-based, human; conditions: for IC50: Homo sapiens, A-375
Experimental: as §1, §2, §3

PNT-2 cells = assay: MTT cytotoxicity assay, normal prostate epithelial cells PNT-2; format: cell-based; conditions: Homo sapiens, PNT2
Experimental: as §1, §2, §3

[1] = 48 h treatment, 5–100 μg/mL, MTT, read-out: IC50 HaCaT
[2] = 48 h treatment, 5–100 μg/mL, MTT, read-out: IC50 HTB140
[3] = 48 h treatment, 5–100 μg/mL, MTT, read-out: IC50 DU145
[4] = 48 h treatment, 5–100 μg/mL, MTT, read-out: IC50 A375
[5] = 48 h treatment, 5–100 μg/mL, MTT, read-out: IC50 PNT-2

Row | SMILES | cytotoxic activity against HeLa cells (HeLa cells) | cytotoxic activity against A549 cells (A549 cells) | anticholinesterase activity (cholinesterase) | IC50 (HaCaT cells; [1]) [µg/mL] | IC50 (HaCaT cells; abstract, value in µM, read-out: IC50 HaCaT (remaining cell lines)) [µM] | cytotoxic activity toward keratinocytes (HaCaT cells; dose range of 5–100 μg/mL) | IC50 (HTB140 cells; [2]) [µg/mL] | IC50 (HTB140 cells; abstract, value in µM, read-out: IC50 HTB140 (remaining cell lines)) [µM] | cytotoxic activity toward melanoma cells (HTB140) (HTB140 cells; dose range of 5–100 μg/mL) | IC50 (PC3 cells; 5–100 μg/mL) [µg/mL] | IC50 (PC3 cells; value in µM) [µM] | IC50 (DU145 cells; [3]) [µg/mL] | IC50 (DU145 cells; abstract, value in µM, read-out: IC50 DU145 (remaining cell lines)) [µM] | IC50 (A375 cells; [4]) [µg/mL] | IC50 (A375 cells; abstract, value in µM, read-out: IC50 A375 (remaining cell lines)) [µM] | cytotoxic activity toward melanoma cells (A375) (A375 cells; dose range of 5–100 μg/mL) | IC50 (PNT-2 cells; [5]) [µg/mL] | IC50 (PNT-2 cells; abstract, value in µM, read-out: IC50 PNT2 (remaining cell lines)) [µM]
1 | C=C1CC/C=C(/CO)C(=O)C[C@@H]2[C@@H]1CC2(C)C [Compound 8, (1S,9R)-14-hydroxycaryophyll-5(6)-en-7-one] | moderate cytotoxic activity | moderate cytotoxic activity | weak anticholinesterase activity | – | – | – | – | – | – | – | – | – | – | – | – | – | – | –
2 | C=C1CC/C=C(/CO)C(=O)C[C@@H]2[C@@H]1C[C@]2(C)COC(C)=O [Compound 9, (1S,9R)-12β-acetoxy-14-hydroxycaryophyll-5(6)-en-7-one] | moderate cytotoxic activity | moderate cytotoxic activity | weak anticholinesterase activity | – | – | – | – | – | – | – | – | – | – | – | – | – | – | –
3 | COc1cc(-c2oc3cc(OC)c(O)c(O)c3c(=O)c2OC)ccc1O [Compound 11, quercetagetin 3,7,3′-trimethyl ether] | – | – | – | > 100 | > 150 | not active | > 100 | > 150 | not active | 16.8 ± 0.77 | 46.6 | 54.87 ± 0.23 | > 150 | > 100 | > 150 | not active | 82.4 ± 2.42 | > 150
4 | COc1cccc2c1C(=O)c1c(O)c3c(c(O)c1C2=O)C[C@@](O)(C(=O)CO)C[C@@H]3O[C@H]1C[C@H](N)[C@H](O)[C@H](C)O1 [Doxorubicin, reference compound] | – | – | – | 4.68 | – | – | 5.71 | – | – | > 50 | – | 3.18 | – | 0.59 | – | – | 1.38 | –
